Experiments:
[1] = Hydrogen peroxide production assay (TCEP/DTNB, 96-well) in presence of Cu(II); details: for effect of chelating agent on hydrogen peroxide production by Vitamin C and antipsychotics: FIG. 7
Procedure: To determine whether antipsychotics themselves could be the source of peroxidation in TD, we measured hydrogen peroxide formation in vitro using a novel 96-well assay developed specifically for that purpose. The production of hydrogen peroxide is assayed by a modification of a published method (Han, J. C. and Han, G. Y., Anal. Biochem. 220:5-10 (1994); Han, J., et al., Anal. Biochem. 234:107-109 (1996)). […] Antipsychotics (10 μM) were assayed for hydrogen peroxide formation in PBS (pH 7.4) in the presence of 10 μM Cu(II).
Ten μM of antipsychotics and 10 μM of Cu(II) were co-incubated with 100 μM of a H2O2-trapping reagent, Tris(2-Carboxyethyl)-Phosphine Hydrochloride (TCEP), in PBS (pH 7.4) at 37° C. for 1 hour.

rats = test: Rodent model of vacuous chewing (TD model); assay type: in vivo, rat; details: 24 weeks treatment, 12 weeks withdrawal, FIG. 12
Procedure: There are two major animal models of TD. The first is a primate model of antipsychotic-induced dyskinesia. Ten to thirty percents of Cebus or Maccaca monkeys will develop clinical dyskinesia after long-term antipsychotic treatment. The second is a rodent model of vacuous chewing. In the rodent model, when the animals are treated with antipsychotics, they develop vacuous chewing, whic phenomenological similarities to the orobuccofacial movement of TD. Only 30-60% of rats will develop vacuous chewing. The chewing movement is enhanced after the withdrawal of antipsychotic treatment. […] (FIG. 12.)

SOD and catalase = details: rats, chronic treatment; cited from earlier work
tardive dyskinesia = details: patients with TD; cited from earlier work

Cc1cc(-c2ccc(S(=O)(=O)O)cc2)c2ccc3c(-c4ccc(S(=O)(=O)O)cc4)cc(C)nc3c2n1 [bathocuproine disulfonate (BC), bathocuproine disulfonate]
effect of chelating agent on hydrogen peroxide production by Vitamin C and antipsychotics [1]: significantly attenuate the production of hydrogen peroxide

CN1CCN(C2=Nc3cc(Cl)ccc3Nc3ccccc32)CC1 [clozapine]
induction of vacuous chewing (rats): only induce vacuous chewing in a small portion of the animals

OCCN1CCN(CCCN2c3ccccc3Sc3ccc(C(F)(F)F)cc32)CC1 [fluphenazine]
dependence of hydrogen peroxide generation on copper concentration ([1]; FIG. 6): dependent on the concentration of copper | dependence of hydrogen peroxide generation on drug concentration ([1]; dose response, FIG. 5): concentration dependent | SOD and catalase activities in the nervous system (SOD and catalase): cause a decrease in SOD and catalase activities

NCCNCCNCCN [triethylenetetramine (TETA), triethylenetetramine]
effect of chelating agent on hydrogen peroxide production by Vitamin C and antipsychotics [1]: significantly attenuate the production of hydrogen peroxide

Vitamin E
effect on symptoms of TD (tardive dyskinesia): reverses the symptoms of TD

Reference: patent US20020084230A1, “Methods for screening drugs to predict tardive dyskinesia” (priority 1997, published 2002)
